Results published in PubChem BioAssay AID192 (DTP/NCI, 2004).
“And” between values parts separate entries of the source, which are not always exact repeats. Equal entries are not always repeated. Inconclusive results and toxic doses are left out. How the source made its calls: active means survival T/C of 150% or more; inactive means T/C below 125% in these data.

Test system: BDF1 mice, B16 melanoma ip, median survival T/C
Experiment: NCI In Vivo Anticancer Drug Screen. Data for tumor model B16 Melanoma (intraperitoneal) in B6D2F1 (BDF1) mice
Conditions: endpoint: median survival time, higher = longer survival
Method in brief: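 Antitumor activity is assessed in mice bearing a transplanted tumor, with survival or tumor size compared against vehicle-dosed controls and expressed as T/C.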

[1] = dose: 3.12 mg/kg/injection, schedule: Q01DX009 (ip), vehicle: Klucel (hydroxypropylcellulose) (HPC)
[2] = dose: 6.25 mg/kg/injection, schedule: Q01DX009 (ip), vehicle: Klucel (hydroxypropylcellulose) (HPC)
[3] = dose: 12.5 mg/kg/injection, schedule: Q01DX009 (ip), vehicle: Klucel (hydroxypropylcellulose) (HPC)
[4] = dose: 25.0 mg/kg/injection, schedule: Q01DX009 (ip), vehicle: Klucel (hydroxypropylcellulose) (HPC)
[5] = dose: 25.0 mg/kg/injection, schedule: Q01DX009 (ip), vehicle: saline with Tween-80
[6] = dose: 50.0 mg/kg/injection, schedule: Q01DX009 (ip), vehicle: Klucel (hydroxypropylcellulose) (HPC)
[7] = dose: 50.0 mg/kg/injection, schedule: Q01DX009 (ip), vehicle: saline with Tween-80
[8] = dose: 50.0 mg/kg/injection, schedule: Q04DX003 (ip), vehicle: saline with Tween-80
[9] = dose: 100.0 mg/kg/injection, schedule: Q01DX009 (ip), vehicle: Klucel (hydroxypropylcellulose) (HPC)
[10] = dose: 100.0 mg/kg/injection, schedule: Q01DX009 (ip), vehicle: saline with Tween-80
[11] = dose: 100.0 mg/kg/injection, schedule: Q04DX003 (ip), vehicle: saline with Tween-80
[12] = dose: 3.12 mg/kg/injection, schedule: Q01DX009 (ip), vehicle: saline
[13] = dose: 6.25 mg/kg/injection, schedule: Q01DX009 (ip), vehicle: saline
[14] = dose: 12.5 mg/kg/injection, schedule: Q01DX009 (ip), vehicle: saline
[15] = dose: 50.0 mg/kg/injection, schedule: Q01DX009 (ip), vehicle: saline
[16] = dose: 200.0 mg/kg/injection, schedule: Q01DX009 (ip), vehicle: saline with Tween-80
[17] = dose: 400.0 mg/kg/injection, schedule: Q01DX009 (ip), vehicle: saline with Tween-80
[18] = dose: 2.5 mg/kg/injection, schedule: Q01DX009 (ip), vehicle: saline with Tween-80

Measured: T/C

CCc1c(CC(=O)O)c2cc(C)ccc2n1Cc1ccc(Cl)cc1
inactive: [1] 110 % of control and 119 % of control | [2] 106 % of control and 114 % of control | [3] 91 % of control and 111 % of control | [4] 88 % of control and 106 % of control and 97 % of control | [5] 97 % of control | [6] 101 % of control and 104 % of control and 105 % of control | [7] 97 % of control | [8] 104 % of control | [9] 88 % of control and 95 % of control and 90 % of control | [10] 88 % of control | [11] 88 % of control

O=C(CCCN1CCC(O)(c2ccc(Cl)cc2)CC1)c1ccc(F)cc1
inactive: [12] 99 % of control | [13] 114 % of control | [14] 102 % of control | [15] 99 % of control

O=S(=O)(Nc1ccc(-c2ccccc2)cc1)c1ccccc1
inactive: [7] 100 % of control | [10] 91 % of control | [16] 89 % of control

Nc1ccc(-c2ccc(N)c([N+](=O)[O-])c2)cc1[N+](=O)[O-]
inactive: [10] 100 % of control | [16] 97 % of control | [17] 105 % of control

NC(=O)NC1CCCCCCC1
inactive: [10] 100 % of control | [16] 93 % of control | [17] 104 % of control

COC(=O)CC1(O)C=CC(=O)C=C1
inactive: dose: 1.56 mg/kg/injection, schedule: Q01DX009 (ip), vehicle: Klucel (hydroxypropylcellulose) (HPC) 95 % of control | [18] 98 % of control | [1] 96 % of control | dose: 5.0 mg/kg/injection, schedule: Q01DX009 (ip), vehicle: saline with Tween-80 102 % of control | [2] 97 % of control | dose: 10.0 mg/kg/injection, schedule: Q01DX009 (ip), vehicle: saline with Tween-80 93 % of control | [3] 94 % of control | dose: 20.0 mg/kg/injection, schedule: Q01DX009 (ip), vehicle: saline with Tween-80 102 % of control | [4] 91 % of control

CS(=O)(=O)c1cc([N+](=O)[O-])cc([N+](=O)[O-])c1Cl
inactive: dose: 0.1 mg/kg/injection, schedule: Q01DX009 (ip), vehicle: saline 93 % of control | dose: 0.2 mg/kg/injection, schedule: Q01DX009 (ip), vehicle: saline 93 % of control | dose: 0.4 mg/kg/injection, schedule: Q01DX009 (ip), vehicle: saline 100 % of control | dose: 0.8 mg/kg/injection, schedule: Q01DX009 (ip), vehicle: saline 95 % of control | dose: 1.25 mg/kg/injection, schedule: Q01DX009 (ip), vehicle: saline with Tween-80 91 % of control | [18] 86 % of control

CC1=C(CCC(=O)O)c2cc3nc(cc4[nH]c(cc4C)cc4[nH]c(cc1n2)cc4C)C(C)(C)C3CCC(=O)O (stereo not given)
inactive: dose: 3.0 mg/kg/injection, schedule: Q01DX009 (ip), vehicle: Klucel (hydroxypropylcellulose) (HPC) 109 % of control | dose: 6.0 mg/kg/injection, schedule: Q01DX009 (ip), vehicle: Klucel (hydroxypropylcellulose) (HPC) 101 % of control | dose: 12.0 mg/kg/injection, schedule: Q01DX009 (ip), vehicle: Klucel (hydroxypropylcellulose) (HPC) 90 % of control | dose: 24.0 mg/kg/injection, schedule: Q01DX009 (ip), vehicle: Klucel (hydroxypropylcellulose) (HPC) 104 % of control

CCCCNC(=O)Oc1ccc(OCc2ccccc2)cc1
inactive: [10] 107 % of control | [16] 107 % of control | [17] 92 % of control

CCC[CH2][Hg][O]C(C)=O
inactive: dose: 0.63 mg/kg/injection, schedule: Q01DX009 (ip), vehicle: other 99 % of control | dose: 1.25 mg/kg/injection, schedule: Q01DX009 (ip), vehicle: other 89 % of control | dose: 2.5 mg/kg/injection, schedule: Q01DX009 (ip), vehicle: other 86 % of control

CN(C)/N=C\c1ccccc1Cl
inactive: [8] 104 % of control | [11] 102 % of control

CCN(CC)CCCN1c2ccccc2Sc2ccc(Cl)cc21
inactive: dose: 0.78 mg/kg/injection, schedule: Q01DX009 (ip), vehicle: saline 91 % of control | dose: 1.56 mg/kg/injection, schedule: Q01DX009 (ip), vehicle: saline 104 % of control | [12] 102 % of control | [13] 93 % of control | [14] 91 % of control

CCC(C)C(C(=O)OC1CCN(C)CC1)c1ccccc1 (stereo not given)
inactive: dose: 25.0 mg/kg/injection, schedule: Q01DX009 (ip), vehicle: saline 101 % of control | [15] 90 % of control

C=CCOC(=O)C1CC(C(=O)OCC=C)C(C(=O)OCC=C)C1C(=O)OCC=C (stereo not given)
inactive: dose: 50.0 mg/kg/injection, schedule: Q01DX009 (ip), vehicle: other 96 % of control | dose: 100.0 mg/kg/injection, schedule: Q01DX009 (ip), vehicle: other 105 % of control | dose: 200.0 mg/kg/injection, schedule: Q01DX009 (ip), vehicle: other 98 % of control

CC(NC(=O)C(C)NC(=O)OC(C)(C)C)C(=O)O (stereo not given)
inactive: [5] 92 % of control | [7] 94 % of control | [10] 93 % of control | [16] 92 % of control

NC(=S)N/N=C/c1ccc(OC(F)(F)F)cn1
inactive: dose: 1.56 mg/kg/injection, schedule: Q01DX009 (ip), vehicle: saline with Tween-80 92 % of control | dose: 3.13 mg/kg/injection, schedule: Q01DX009 (ip), vehicle: saline with Tween-80 94 % of control | dose: 6.25 mg/kg/injection, schedule: Q01DX009 (ip), vehicle: saline with Tween-80 89 % of control | dose: 12.5 mg/kg/injection, schedule: Q01DX009 (ip), vehicle: saline with Tween-80 95 % of control

COc1cc2[nH]c(C)c(CCN3CCN(c4ccccc4)CC3)c2cc1OC
inactive: dose: 0.04 mg/kg/injection, schedule: Q01DX009 (ip), vehicle: Klucel (hydroxypropylcellulose) (HPC) 107 % of control | dose: 0.09 mg/kg/injection, schedule: Q01DX009 (ip), vehicle: Klucel (hydroxypropylcellulose) (HPC) 92 % of control | dose: 0.19 mg/kg/injection, schedule: Q01DX009 (ip), vehicle: Klucel (hydroxypropylcellulose) (HPC) 93 % of control | dose: 0.39 mg/kg/injection, schedule: Q01DX009 (ip), vehicle: Klucel (hydroxypropylcellulose) (HPC) 106 % of control | dose: 0.78 mg/kg/injection, schedule: Q01DX009 (ip), vehicle: Klucel (hydroxypropylcellulose) (HPC) 102 % of control

Nc1nncs1
inactive: dose: 8.0 mg/kg/injection, schedule: Q01DX009 (ip), vehicle: saline 104 % of control | dose: 16.0 mg/kg/injection, schedule: Q01DX009 (ip), vehicle: other 111 % of control | dose: 16.0 mg/kg/injection, schedule: Q01DX009 (ip), vehicle: saline 99 % of control | dose: 32.0 mg/kg/injection, schedule: Q01DX009 (ip), vehicle: other 106 % of control | dose: 32.0 mg/kg/injection, schedule: Q01DX009 (ip), vehicle: saline 105 % of control | dose: 64.0 mg/kg/injection, schedule: Q01DX009 (ip), vehicle: other 104 % of control

c1ccc(-c2nnc(-c3ccccn3)nn2)nc1
inactive: [6] 103 % of control | [9] 107 % of control | dose: 200.0 mg/kg/injection, schedule: Q01DX009 (ip), vehicle: Klucel (hydroxypropylcellulose) (HPC) 97 % of control | dose: 400.0 mg/kg/injection, schedule: Q01DX009 (ip), vehicle: Klucel (hydroxypropylcellulose) (HPC) 96 % of control

O=C(CBr)c1ccc(-c2ccccc2)cc1
inactive: dose: 12.5 mg/kg/injection, schedule: Q04DX003 (ip), vehicle: Klucel (hydroxypropylcellulose) (HPC) 88 % of control | dose: 25.0 mg/kg/injection, schedule: Q04DX003 (ip), vehicle: Klucel (hydroxypropylcellulose) (HPC) 102 % of control | [6] 93 % of control | dose: 50.0 mg/kg/injection, schedule: Q04DX003 (ip), vehicle: Klucel (hydroxypropylcellulose) (HPC) 94 % of control

CN(C)c1ccc2c(N(C)C)cc(N(C)C)nc2c1
inactive: [1] 99 % of control | [2] 107 % of control | [3] 97 % of control | [4] 108 % of control | [6] 102 % of control

CCCN(CCC)CC(C)=O
inactive: dose: 100.0 mg/kg/injection, schedule: Q04DX003 (ip), vehicle: Klucel (hydroxypropylcellulose) (HPC) 107 % of control | dose: 200.0 mg/kg/injection, schedule: Q04DX003 (ip), vehicle: Klucel (hydroxypropylcellulose) (HPC) 97 % of control
